Measurements: publication PMC7247818, “Demonstration of Binding Induced Structural Plasticity in a SH2 Domain” (Frontiers in Molecular Biosciences, 2020)
Where a SMILES comes first, the peptide text is derived from it.

How the values were obtained:
N-SH2 domain of PI3K, WT = molecular target: T1, N-SH2 domain of PI3K, WT (Homo sapiens, UniProt P27986); assay: Stopped-flow binding kinetics, N-SH2 WT; settings: 10°C
T1 construct: made in house
Protocol: (§1) N-SH2 wild-type and all the site-directed variants were expressed and purified as described previously ([Visconti et al., 2019]). All the mutants were obtained using a QuickChange Lightning Site-Directed Mutagenesis kit (Agilent technologies), accordingly to manufacturer instructions. Peptides with sequence TNSEDNpYVPMNPG mimicking wild-type Gab2 and TNSEDNpYVPANPG mimicking the M457A variant of Gab2 were purchased from GenScript Biotech Corporation.
(§2) Binding kinetics experiments were performed using a single-mixing SX-18 stopped-flow instrument (Applied Photophysics); all binding experiments were conducted in 50 mM Hepes pH 7.4 300 mM NaCl at 10°C. Excitation was at 280 nm and emission was collected using a […] cut-off glass filter. Pseudo-first order binding experiments were performed mixing a constant concentration of dansylated Gab2_448–460 and Gab2_448–460 M457A (1 μM) vs. N-SH2 wt and its mutants at concentrations ranging from […]. For each N-SH2 concentration, usually 5 individual traces were averaged and in all cases the fluorescence time courses obtained was satisfactorily fitted by using a single exponential equation.
(§3) One of the aims of this study is to depict the molecular details of the interaction between the N-SH2 domain of PI3K and Gab2. A powerful strategy to achieve this goal relies on perturbing the system by producing conservative site-directed variants while monitoring the effect of mutations on the association and dissociation rate constants between the interacting partners (kon and koff respectively). Thus, we designed and successfully produced 21 site-directed variants of the N-SH2 domain and challenged them vs. a peptide mimicking the region of Gab2 ranging from residue 448–460 (Gab2_448–460), containing the pY-X-X-M motif that is specifically recognized by the N-SH2 domain ([Waksman et al., 1992]; [Songyang et al., 1993]). The choise of mutations was designed in analogy to phi-value analysis methodology in protein folding studies ([Fersht and Sato, 2004]). […] To monitor binding by fluorescence, a dansyl group was added at the N-terminus of the peptide. The binding reaction was monitored by stopped-flow experiments following the change in FRET signal, taking advantage of the two Trp residues on the N-SH2 domain in positions 12 and 14 as fluorescence donor and the dansyl group on Gab2_448–460 as acceptor. The experiments were performed in pseudo-first order conditions with Gab2_448–460 at fixed concentration of 1 μM rapidly mixed vs. large excess of N-SH2 wt and its variants, ranging from 4 to 14 μM, in buffer Hepes 50 mM, NaCl 300 mM, pH 7.4, at 10°C.
(§4) with kon being the slope of the line and koff the intercept with the y-axis. Since indirect calculation of koff obtained by extrapolation is associated with high experimental error, we performed displacement experiments to directly measure koff by challenging a pre-incubated complex of dansylated Gab2_448–460 and N-SH2 domain both at the concentration of 1 μM vs. a large excess of non-dansylated Gab2_448–460 (50 μM). Kinetic parameters extracted from data together with the calculated changes in activation and equilibrium free energies are reported in Table 1. Analysis of kinetic data highlights that T48S, L51A, and L59A variations cause a detectable decrease of the affinity of the domain for Gab2_448–460 of ∼10-fold, affecting both the kon and koff. […] Since L99 residue is part of the binding pocket, this dramatic effect on the binding affinity is expected.
(§5) SH2 domains bind ligands with a phosphorylated tyrosine in their sequence. The N-SH2 domain of PI3K is known to recognize a specific consensus sequences that present a methionine in position +3 in respect to the phosphotyrosine (M457 in Gab2). […]

[1] = molecular target: T2, N-SH2 domain of PI3K, I17V variant (Homo sapiens, UniProt P27986, I338V); assay: Stopped-flow binding kinetics, N-SH2 I17V; settings: 10°C
T2 construct: made in house
Protocol: as §1, §2, §3, §4, §5

[2] = molecular target: T3, N-SH2 domain of PI3K, V22A variant (Homo sapiens, UniProt P27986, V343A); assay: Stopped-flow binding kinetics, N-SH2 V22A; settings: 10°C
T3 construct: made in house
Protocol: as §1, §2, §3, §4, §5

[3] = molecular target: T4, N-SH2 domain of PI3K, T29S variant (Homo sapiens, UniProt P27986, T350S); assay: Stopped-flow binding kinetics, N-SH2 T29S; settings: 10°C
T4 construct: made in house
Protocol: as §1, §2, §3, §4, §5

[4] = molecular target: T5, N-SH2 domain of PI3K, A30G variant (Homo sapiens, UniProt P27986, A351G); assay: Stopped-flow binding kinetics, N-SH2 A30G; settings: 10°C
T5 construct: made in house
Protocol: as §1, §2, §3, §4, §5

[5] = molecular target: T6, N-SH2 domain of PI3K, T33S variant (Homo sapiens, UniProt P27986, T354S); assay: Stopped-flow binding kinetics, N-SH2 T33S; settings: 10°C
T6 construct: made in house
Protocol: as §1, §2, §3, §4, §5

[6] = molecular target: T7, N-SH2 domain of PI3K, L35A variant (Homo sapiens, UniProt P27986, L356A); assay: Stopped-flow binding kinetics, N-SH2 L35A; settings: 10°C
T7 construct: made in house
Protocol: as §1, §2
(§6) One of the aims of this study is to depict the molecular details of the interaction between the N-SH2 domain of PI3K and Gab2. […] To monitor binding by fluorescence, a dansyl group was added at the N-terminus of the peptide. The binding reaction was monitored by stopped-flow experiments following the change in FRET signal, taking advantage of the two Trp residues on the N-SH2 domain in positions 12 and 14 as fluorescence donor and the dansyl group on Gab2_448–460 as acceptor. […]
(§7) with kon being the slope of the line and koff the intercept with the y-axis. […] Kinetic parameters extracted from data together with the calculated changes in activation and equilibrium free energies are reported in Table 1. […]

[7] = molecular target: T8, N-SH2 domain of PI3K, T48S variant (Homo sapiens, UniProt P27986, T369S); assay: Stopped-flow binding kinetics, N-SH2 T48S; settings: 10°C
T8 construct: made in house
Protocol: as §1, §2, §6, §7

[8] = molecular target: T9, N-SH2 domain of PI3K, T50S variant (Homo sapiens, UniProt P27986, T371S); assay: Stopped-flow binding kinetics, N-SH2 T50S; settings: 10°C
T9 construct: made in house
Protocol: as §1, §2, §3, §4, §5

[9] = molecular target: T10, N-SH2 domain of PI3K, L51A variant (Homo sapiens, UniProt P27986, L372A); assay: Stopped-flow binding kinetics, N-SH2 L51A; settings: 10°C
T10 construct: made in house
Protocol: as §1, §2, §3, §4, §5

[10] = molecular target: T11, N-SH2 domain of PI3K, L59A variant (Homo sapiens, UniProt P27986, L380A); assay: Stopped-flow binding kinetics, N-SH2 L59A; settings: displacement experiment, pH 7.4, 300 mM NaCl, 10°C
T11 construct: made in house
Protocol: as §1, §2, §6, §7

[11] = displacement experiment, pH 7.4, 300 mM NaCl
[12] = stopped-flow FRET, 1 μM dansylated peptide, 50 mM Hepes pH 7.4, 300 mM NaCl
[13] = stopped-flow kinetics, pH 7.4, 300 mM NaCl

T2 sequence (P27986 333-428 I338V): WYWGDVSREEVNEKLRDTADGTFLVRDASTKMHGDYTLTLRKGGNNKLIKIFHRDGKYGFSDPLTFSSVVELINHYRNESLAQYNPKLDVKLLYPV
T10 sequence (P27986 333-428 L372A): as the sequence (P27986 333-428 I338V) above, with V6I, L40A counted along it
T1 sequence (P27986 333-428 limits assumed): as the sequence (P27986 333-428 I338V) above, with V6I counted along it
T6 sequence (P27986 333-428 T354S): as the sequence (P27986 333-428 I338V) above, with V6I, T22S counted along it
T9 sequence (P27986 333-428 T371S): as the sequence (P27986 333-428 I338V) above, with V6I, T39S counted along it
T7 sequence (P27986 333-428 L356A): as the sequence (P27986 333-428 I338V) above, with V6I, L24A counted along it
T4 sequence (P27986 333-428 T350S): as the sequence (P27986 333-428 I338V) above, with V6I, T18S counted along it
T3 sequence (P27986 333-428 V343A): as the sequence (P27986 333-428 I338V) above, with V6I, V11A counted along it
T5 sequence (P27986 333-428 A351G): as the sequence (P27986 333-428 I338V) above, with V6I, A19G counted along it
T8 sequence (P27986 333-428 T369S): as the sequence (P27986 333-428 I338V) above, with V6I, T37S counted along it
T11 sequence (P27986 333-428 L380A): as the sequence (P27986 333-428 I338V) above, with V6I, L48A counted along it

With CSCC[C@H](NC(=O)[C@@H]1CCCN1C(=O)[C@@H](NC(=O)[C@H](Cc1ccc(OP(=O)(O)O)cc1)NC(=O)[C@H](CC(N)=O)NC(=O)[C@H](CC(=O)O)NC(=O)[C@H](CCC(=O)O)NC(=O)[C@H](CO)NC(=O)[C@H](CC(N)=O)NC(=O)[C@@H](N)[C@@H](C)O)C(C)C)C(=O)N[C@@H](CC(N)=O)C(=O)N1CCC[C@H]1C(=O)NCC(=O)O [Gab2_448–460] (HELM PEPTIDE1{T.N.S.E.D.N.[O=C([C@H](Cc1ccc(OP(=O)(O)O)cc1)N[*:1])[*:2]].V.P.M.N.P.G}$$$$V2.0) the koff (N-SH2 domain of PI3K, WT; displacement of 1 μM complex by 50 μM non-dansylated Gab2_448–460, 50 mM Hepes pH 7.4, 300 mM NaCl) was 3.9 ± 0.2 s⁻¹, the Kd (N-SH2 domain of PI3K, WT; from stopped-flow kinetics, pH 7.4, 300 mM NaCl) was 0.2 ± 0.1 µM and the kon (N-SH2 domain of PI3K, WT; stopped-flow FRET, 1 μM dansylated peptide vs excess N-SH2, 50 mM Hepes pH 7.4, 300 mM NaCl, slope of kobs) was 1.95e+07 ± 1e+06 M⁻¹ s⁻¹. It also gave a koff [1, 11] of 4.5 ± 0.2 s⁻¹, a kon [1, 12] of 2.44e+07 ± 1.7e+06 M⁻¹ s⁻¹ and a Kd [1, 13] of 0.2 ± 0.1 µM. For the same compound, the koff [2, 11] was 7.4 ± 0.4 s⁻¹, the kon [2, 12] was 1.12e+07 ± 400000 M⁻¹ s⁻¹ and the Kd [2, 13] was 0.7 ± 0.1 µM. The koff [3, 11] was 4.3 ± 0.2 s⁻¹, the kon [3, 12] was 1.75e+07 ± 500000 M⁻¹ s⁻¹ and the Kd [3, 13] was 0.3 ± 0.1 µM. It also gave a koff [4, 11] of 3.7 ± 0.2 s⁻¹, a kon [4, 12] of 2.92e+07 ± 2e+06 M⁻¹ s⁻¹ and a Kd [4, 13] of 0.1 ± 0.1 µM. It also gave a koff [5, 11] of 3.6 ± 0.2 s⁻¹, a kon [5, 12] of 2.26e+07 ± 2.4e+06 M⁻¹ s⁻¹ and a Kd [5, 13] of 0.2 ± 0.1 µM. For the same compound, the koff [6, 11] was 6.7 ± 0.3 s⁻¹, the kon [6, 12] was 7e+06 ± 600000 M⁻¹ s⁻¹ and the Kd [6, 13] was 1 ± 0.1 µM. For the same compound, the koff [7, 11] was 23 ± 1 s⁻¹, the kon [7, 12] was 6.4e+06 ± 500000 M⁻¹ s⁻¹ and the Kd [7, 13] was 3.7 ± 0.1 µM. It also gave a koff [8, 11] of 9.3 ± 0.5 s⁻¹, a kon [8, 12] of 1.56e+07 ± 800000 M⁻¹ s⁻¹ and a Kd [8, 13] of 0.6 ± 0.1 µM. It also gave a koff [9, 11] of 18 ± 1 s⁻¹, a kon [9, 12] of 5.6e+06 ± 1.1e+06 M⁻¹ s⁻¹ and a Kd [9, 13] of 3.2 ± 0.2 µM. It also gave a koff [10] of 21 ± 1 s⁻¹.
